The target of data set [1] is T1, Muscarinic acetylcholine receptor M1 (Homo sapiens, UniProt P11229).
T1 sequence (P11229 whole entry): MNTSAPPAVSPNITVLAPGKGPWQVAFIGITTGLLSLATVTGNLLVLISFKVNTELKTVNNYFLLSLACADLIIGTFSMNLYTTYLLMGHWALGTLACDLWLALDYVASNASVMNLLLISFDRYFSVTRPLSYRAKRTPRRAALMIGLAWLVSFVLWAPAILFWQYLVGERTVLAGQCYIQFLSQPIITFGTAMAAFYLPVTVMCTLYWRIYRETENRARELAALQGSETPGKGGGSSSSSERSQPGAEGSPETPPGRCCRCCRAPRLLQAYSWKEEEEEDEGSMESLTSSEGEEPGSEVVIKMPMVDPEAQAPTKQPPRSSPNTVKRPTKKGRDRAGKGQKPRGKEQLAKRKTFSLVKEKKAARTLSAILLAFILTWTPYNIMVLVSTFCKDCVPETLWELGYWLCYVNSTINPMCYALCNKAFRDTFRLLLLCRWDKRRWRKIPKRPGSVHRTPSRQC
Description: Binding affinity against human Muscarinic acetylcholine receptor M1 in transfected CHO cells. It is filed as cell-based.

For data set [2], the target named is T2, Muscarinic acetylcholine receptor M2 (Homo sapiens, UniProt P08172).
T2 sequence (P08172 whole entry): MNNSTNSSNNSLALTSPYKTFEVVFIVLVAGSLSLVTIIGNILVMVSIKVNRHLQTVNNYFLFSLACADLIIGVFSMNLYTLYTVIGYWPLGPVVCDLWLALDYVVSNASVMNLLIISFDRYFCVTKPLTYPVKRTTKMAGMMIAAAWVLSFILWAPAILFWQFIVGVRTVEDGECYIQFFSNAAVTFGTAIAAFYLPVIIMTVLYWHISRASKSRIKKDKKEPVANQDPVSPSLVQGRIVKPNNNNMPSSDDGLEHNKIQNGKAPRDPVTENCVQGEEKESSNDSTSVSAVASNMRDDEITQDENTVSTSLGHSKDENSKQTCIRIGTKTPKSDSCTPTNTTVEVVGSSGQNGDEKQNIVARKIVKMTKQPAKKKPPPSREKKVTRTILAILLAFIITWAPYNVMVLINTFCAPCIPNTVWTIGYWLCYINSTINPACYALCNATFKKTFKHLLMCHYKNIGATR
Description: Binding affinity against human muscarinic acetylcholine receptor M2 in transfected CHO cells. In kind it is cell-based.

Data set [3] has as its target Muscarinic acetylcholine receptor M3 (Homo sapiens, UniProt P20309). Put plainly: Binding affinity against human muscarinic acetylcholine receptor M3 in transfected CHO cells. In kind it is cell-based.
A short description of data set [4]: In vitro metabolic stability determined after 30 min of incubation in human hepatic microsomes. Particulars: liver microsomes, read-out: Metabolic stability. It is filed as ADME. Background: Microsomes from liver hold many membrane-bound enzymes, among them those of drug oxidation.
Data set [5] is described as follows: Vdss was determined after iv 0.1 mg/kg administration in dog. Particulars: in vivo, read-out: Vdss. In kind it is ADME, organism-based, Canis lupus familiaris. More on the design: dose 0.1 mg/kg, route intravenous.
The nature of data set [6]: Cmax after 0.3 mg/kg po administration in dog. In kind it is ADME, organism-based, Canis lupus familiaris. On the set-up: dose 0.3 mg/kg, route oral. Particulars: in vivo.
A short description of data set [7]: Area under curve was determined after 0.1 mg/kg iv administration in dog. Particulars: in vivo. On the set-up: dose 0.1 mg/kg, route intravenous. It is filed as ADME, organism-based, Canis lupus familiaris.
A short description of data set [8]: Half-life of the compound after 0.3 mg/kg po administration in dog. In kind it is ADME, organism-based, Canis lupus familiaris. On the set-up: dose 0.3 mg/kg, route oral. Particulars: in vivo.
Data set [9] is described as follows: In vitro metabolic stability determined after 30 min of incubation in dog hepatic microsomes. It is filed as ADME, Canis lupus familiaris. Particulars: liver microsomes, read-out: Metabolic stability.
Data set [10] is described as follows: Total clearance was determined after 0.1 mg/kg iv administration in dog. Particulars: in vivo, read-out: CLtotal. In kind it is ADME, organism-based, Canis lupus familiaris. On the set-up: dose 0.1 mg/kg, route intravenous.
A short description of data set [11]: Area under curve was determined after 0.3 mg/kg po administration in dog. It is filed as ADME, organism-based, Canis lupus familiaris. More on the design: dose 0.3 mg/kg, route oral. Particulars: in vivo.
The nature of data set [12]: In vitro metabolic stability determined after 30 min of incubation in rat hepatic microsomes. Particulars: liver microsomes, read-out: Metabolic stability. It is filed as ADME.
The nature of data set [13]: Oral bioavailability after 0.3 mg/kg po administration in dog. In kind it is ADME, organism-based, Canis lupus familiaris. Particulars: in vivo.

Experimental findings from ChEMBL document CHEMBL1136082, “Muscarinic M(3) receptor antagonists with (2R)-2-[(1R)-3,3-difluorocyclopentyl]-2-hydroxyphenylacetamide Structures. Part 2” (Bioorg Med Chem Lett, 2003) are described below.

As usually defined, the Ki is the equilibrium dissociation constant of an inhibitor or competing ligand from its target. Higher therefore signals lower affinity. Usually Cmax stands for the maximum level reached in the sampled fluid or tissue. The term AUC denotes concentration integrated over time. As usually defined, the half-life is how long it takes for the measured level to halve. A word on the bioavailability: it is dose-corrected exposure relative to a reference, in per cent. High values mean much systemic uptake, low ones little systemic uptake.

Muscarinic acetylcholine receptor M3, sequence (P20309 whole entry): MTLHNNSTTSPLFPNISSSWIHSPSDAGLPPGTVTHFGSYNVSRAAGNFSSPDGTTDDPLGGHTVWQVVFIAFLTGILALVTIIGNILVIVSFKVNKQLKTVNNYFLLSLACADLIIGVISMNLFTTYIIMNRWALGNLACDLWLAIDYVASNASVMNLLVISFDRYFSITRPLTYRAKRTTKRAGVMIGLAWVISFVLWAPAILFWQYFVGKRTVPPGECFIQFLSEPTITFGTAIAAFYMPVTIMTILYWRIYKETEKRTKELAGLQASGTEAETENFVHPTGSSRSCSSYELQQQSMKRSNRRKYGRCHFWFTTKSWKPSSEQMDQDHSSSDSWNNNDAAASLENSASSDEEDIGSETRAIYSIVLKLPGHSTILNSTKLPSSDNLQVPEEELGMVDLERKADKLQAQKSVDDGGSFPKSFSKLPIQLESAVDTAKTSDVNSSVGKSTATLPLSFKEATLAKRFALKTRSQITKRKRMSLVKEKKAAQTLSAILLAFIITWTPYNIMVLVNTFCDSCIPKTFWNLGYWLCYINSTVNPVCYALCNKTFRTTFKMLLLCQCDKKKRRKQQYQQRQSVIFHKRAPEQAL

On to `NCCCCC1CCN(C(=O)[C@](O)(c2ccccc2)[C@@H]2CCC(F)(F)C2)CC1`, for which the inhibitory constant (Ki) in data set [1] is 0.14 µM; in data set [2] it was 4.2 µM; in data set [3] it was 0.076 µM.
For `NCc1cccc(NC(=O)[C@](O)(c2ccccc2)[C@@H]2CCC(F)(F)C2)c1`, in that order: 0.21 µM, 2.9 µM and 0.093 µM.
Regarding `NCc1ccc(NC(=O)[C@](O)(c2ccccc2)[C@@H]2CCC(F)(F)C2)cc1`, the figures for the Ki in data set [1], in [2] and in data set [3] were 0.74 µM, 5.3 µM and 0.65 µM, respectively.
Turning to `CC1(CCN)CCN(C(=O)[C@](O)(c2ccccc2)[C@@H]2CCC(F)(F)C2)CC1`, the Ki was found to be 0.0015 µM in data set [1], 0.21 µM in data set [2] and 0.0033 µM in [3].
The matching figures for `NCC1CCN(C(=O)[C@](O)(c2ccccc2)[C@@H]2CCC(F)(F)C2)C1` (stereo not given in full): 0.0021 µM, 0.13 µM and 0.0029 µM.
The matching figures for `O=C(NCC1CCNCC1)[C@](O)(c1ccccc1)[C@@H]1CCC(F)(F)C1`: 0.023 µM, 2.2 µM and 0.017 µM.
For `O=C(Nc1ccc2c(c1)CNC2)[C@](O)(c1ccccc1)[C@@H]1CCC(F)(F)C1`, in that order: 0.63 µM, 15 µM and 0.29 µM.
With `NCCC1CCN(C(=O)[C@](O)(c2ccccc2)[C@@H]2CCC(F)(F)C2)CC1`, the remaining at 0.5 h in [4] amounted to 82%; in data set [9], 100%; in data set [12], 100%. Further, the Vd in [5] is 9.4 L/kg. The peak concentration (Cmax) in data set [6] was found to be 43 ng/mL. In [1], the Ki is 0.0066 µM. Besides, the AUC in [7] is 150 ng·h/mL; in data set [11], 440 ng·h/mL. Moreover, the half-life in data set [8] was 6.9 h. For the same compound, the clearance in data set [10] was determined as 13 mL/min/kg. Also, in data set [13], the bioavailability was found to be 98%.
On to `O=C(N1CCCNCC1)[C@](O)(c1ccccc1)[C@@H]1CCC(F)(F)C1`, for which the inhibition constant (Ki) in data set [1] was 0.014 µM; in data set [2] it was 1.1 µM; in data set [3] it was 0.017 µM.
For `CCC1(CCN)CCN(C(=O)[C@](O)(c2ccccc2)[C@@H]2CCC(F)(F)C2)CC1`, in that order: 0.001 µM, 0.3 µM and 0.007 µM.
Take `NCC1CCN(C(=O)[C@](O)(c2ccccc2)[C@@H]2CCC(F)(F)C2)CC1`: the remaining at 0.5 h worked out at 100% in [4], 100% in data set [9] and 98% in [12]. Also, the results for the inhibition constant Ki in data set [1], in data set [2] and in [3] were 0.011 µM, 0.76 µM and 0.011 µM, respectively.
As for `NCC1CCN(C(=O)[C@](O)(c2ccccc2)C2CCCC2)CC1`, the remaining at 0.5 h in data set [4] came out at 91%; in data set [9], 100%; in [12], 72%. In addition, the Ki in data set [1] amounted to 0.0018 µM; in data set [2], 0.028 µM; in data set [3] it was 0.0017 µM.
On to `NCCCC1CCN(C(=O)[C@](O)(c2ccccc2)[C@@H]2CCC(F)(F)C2)CC1`, for which the figures for the inhibition constant Ki in [1], in data set [2] and in [3] were 0.092 µM, 2.8 µM and 0.047 µM, respectively.
In the case of `O=C(N1CCNCC1)[C@](O)(c1ccccc1)[C@@H]1CCC(F)(F)C1`, the Ki in data set [1] came to 0.03 µM; in [2], 1.2 µM; in data set [3] it was 0.05 µM.
Turning to `O=C(NCCC1CCNCC1)[C@](O)(c1ccccc1)[C@@H]1CCC(F)(F)C1`, the results for the inhibition constant (Ki) in data set [1], in data set [2] and in [3] were 0.14 µM, 3.9 µM and 0.089 µM, respectively.
As to `NCC=C1CCN(C(=O)[C@](O)(c2ccccc2)[C@@H]2CCC(F)(F)C2)CC1`, the Ki worked out at 0.0013 µM in [1], 0.055 µM in data set [2] and 0.0012 µM in data set [3].
For `NC1CCN(C(=O)[C@](O)(c2ccccc2)[C@@H]2CCC(F)(F)C2)CC1`, the remaining at 0.5 h in [4] stood at 86%; in data set [9], 88%; in data set [12] it was 100%. The inhibitory constant (Ki) in [1] came out at 0.003 µM; in data set [2] it was 0.24 µM; in data set [3], 0.0051 µM.
Regarding `CC1(N)CCN(C(=O)[C@](O)(c2ccccc2)[C@@H]2CCC(F)(F)C2)CC1`, the Ki in data set [1] turned out to be 0.0047 µM; in [2] it was 0.64 µM; in data set [3], 0.0083 µM.
With `O=C(NC1CCNCC1)[C@](O)(c1ccccc1)[C@@H]1CCC(F)(F)C1`, the figures for the Ki in [1], in data set [2] and in [3] were 0.31 µM, 15 µM and 0.32 µM, respectively.
With `NCC(=O)N1CCN(C(=O)[C@](O)(c2ccccc2)[C@@H]2CCC(F)(F)C2)CC1`, the values for the inhibitory constant (Ki) in data set [1], in [2] and in data set [3] were 0.021 µM, 0.3 µM and 0.016 µM, respectively.
As for `NCCN1CCN(C(=O)[C@](O)(c2ccccc2)[C@@H]2CCC(F)(F)C2)CC1`, the Ki in data set [1] was found to be 0.011 µM; in [2], 0.82 µM; in [3] it was 0.0096 µM.
Take `NCCC1CCN(C(=O)[C@](O)(c2ccccc2)C2CCCC2)CC1`: the values for the remaining at 0.5 h in data set [4], in data set [9] and in [12] were 86%, 84% and 77%, respectively. Also, the Ki amounted to 0.0021 µM in [1], 0.041 µM in data set [2] and 0.0011 µM in [3].
For `Nc1cccc(CN2CCC(NC(=O)[C@](O)(c3ccccc3)[C@@H]3CCC(F)(F)C3)CC2)n1`, the figures for the remaining at 0.5 h in data set [4], in data set [9] and in data set [12] were 80%, 84% and 46%, respectively.
Consider `CN(C)CCC1CCN(C(=O)[C@](O)(c2ccccc2)[C@@H]2CCC(F)(F)C2)CC1`, for which the Ki in data set [1] amounted to 0.76 µM; in data set [2], 15 µM; in data set [3] it was 0.93 µM.
The matching figures for `O=C(N1CCC(CCN2CCCCC2)CC1)[C@](O)(c1ccccc1)[C@@H]1CCC(F)(F)C1`: 1.9 µM, 36 µM and 2.4 µM.
Take `NC1CCN(C(=O)[C@](O)(c2ccccc2)C2CCCC2)CC1`: the figures for the remaining at 0.5 h in data set [4], in data set [9] and in data set [12] were 92%, 89% and 40%, respectively. For the same compound, the Ki was determined as 0.00098 µM in [1], 0.011 µM in data set [2] and 0.0014 µM in data set [3].
For `CC(C)(N)CC1CCN(C(=O)[C@](O)(c2ccccc2)[C@@H]2CCC(F)(F)C2)CC1`, the Ki is 0.037 µM in data set [1], 1 µM in data set [2] and 0.026 µM in data set [3].
For `NCC1CCC(NC(=O)[C@](O)(c2ccccc2)[C@@H]2CCC(F)(F)C2)CC1` (stereo not given in full), in that order: 0.055 µM, 6.8 µM and 0.1 µM.
For `CNCCC1CCN(C(=O)[C@](O)(c2ccccc2)[C@@H]2CCC(F)(F)C2)CC1`, the inhibitory constant (Ki) in [1] was found to be 0.14 µM; in data set [2], 5.4 µM; in data set [3], 0.12 µM.
